In patent publication US6858625B1, “Quinolinecarboxylic acid derivative or salts thereof” (Wakunaga Pharmaceutical Co., Ltd., priority 1999, dated 2005):
Converted amounts (≈) assume the structure as drawn.

Legend:
[1] = test system: B. subtilis ATCC6633; experiment: Minimum growth inhibitory concentration (MIC), standard method of the Japan Society of Chemotherapy; assay type: cell-based; details: Bacillus subtilis
Protocol: (§1) Their minimum growth inhibitory concentrations (MICs: μg/mL) were determined in accordance with the standard method of the Japan Society of Chemotherapy [Chemotherapy, 29(1), 76 (1981)].

[2] = test system: E. coli NIHJ-JC2; experiment: as above; assay type: cell-based; details: Escherichia coli, NIHJJC2
Protocol: as §1

[3] = test system: E. faecalis IFO12580; experiment: as above; assay type: cell-based; details: Enterococcus faecalis
Protocol: as §1

[4] = test system: K. pneumoniae KC-1; experiment: as above; assay type: cell-based; details: Klebsiella pneumoniae, KC1
Protocol: as §1

[5] = test system: M. luteus IFO12708; experiment: as above; assay type: cell-based; details: Micrococcus luteus
Protocol: as §1

[6] = test system: MRSA W200; experiment: as above; assay type: cell-based; details: Staphylococcus aureus
Protocol: as §1

[7] = test system: P. aeruginosa E-2; experiment: as above; assay type: cell-based; details: Pseudomonas aeruginosa, E2
Protocol: as §1

[8] = test system: P. aeruginosa IFO3445; experiment: as above; assay type: cell-based; details: Pseudomonas aeruginosa
Protocol: as §1

[9] = test system: P. vulgaris IFO3167; experiment: as above; assay type: cell-based; details: Proteus vulgaris
Protocol: as §1

[10] = test system: S. aureus 209P; experiment: as above; assay type: cell-based; details: Staphylococcus aureus
Protocol: as §1

[11] = test system: S. epidermidis IFO12293; experiment: as above; assay type: cell-based; details: Staphylococcus epidermidis
Protocol: as §1

[12] = test system: S. marcescens IFO3736; experiment: as above; assay type: cell-based; details: Serratia marcescens
Protocol: as §1

[13] = test system: Isolated coccus 1 (clinically-isolated quinolone resistant pneumococci); experiment: MIC against clinically-isolated quinolone resistant pneumococci, agar plates with 5% defibrinated sheep blood; assay type: cell-based; details: Isolated coccus 1, quinolone resistant pneumococcus
Protocol: (§2) Using agar plates added with 5% defibrinated sheep blood, minimum growth inhibition concentrations (MICs; μg/mL) against certain pneumococci were determined in accordance with the standard method of the Japan Society of Chemotherapy [Chemotherapy, 29(1), 76 (1981)].

[14] = test system: Isolated coccus 5 (clinically-isolated quinolone resistant pneumococci); experiment: as above; assay type: cell-based; details: Isolated coccus 5, quinolone resistant pneumococcus
Protocol: as §2

[15] = In vivo pharmacokinetic study (absorption and excretion in dogs); set-up: species or system beagles; details: for AUC(0-t) / Cmax / Tmax / half-life / Urinary excretion rate: male beagles, per os; for AUC(0-t) / Cmax / Tmax / half-life: 10 mg/mL/kg in 0.5% methyl cellulose; for Urinary excretion rate: 10 mg/mL/kg, urine up to 24th hour
Protocol: An investigation was made on the absorption and excretion of the compounds of the present invention in and from dogs. A 0.5% suspension of one of the test compounds in methyl cellulose (10 mg/mL/kg) was forcedly administered per os to 2-4 years old, male beagles fasted for 16 to 17 hours. After the administration, blood samples were collected on the 0.25th, 0.5th, 1st, 2nd, 4th, 6th, 8th and 24th hours, and serum samples were obtained. To determine urinary excretion rates, urine samples were also collected up to 24th hour after the administration. The concentrations of the test compound in the serum samples and urine samples were measured by the paper disk method making use of Bacillus subtilis ATCC6633 as a test bacterium, and the absorption and excretion were ranked.

[16] = Phototoxicity test (ear abnormality after UV exposure); assay type: in vivo, ICR mice; details: 40 mg/kg i.v., 4 h UV 320-400 nm; for Ear abnormality (point): 0 = no abnormality to 3 = severe erythema or edema; for Ear abnormality (frequency): affected/total mice
Protocol: A phototoxicity test was performed by the following procedure. Female ICR mice (5 to 6 weeks old) were intravenously administered with the test compounds (40 mg/kg/10 mL), respectively, and were exposed for 4 hours to ultraviolet rays (320 to 400 nm, 1.8 mW/cm^2/sec). […] Ear abnormality was ranked by the following standards: no abnormality (0 point), mild erythema (1 point), medium erythema (2 points), and severe erythema or edema (3 points) The results are presented in Table 2.

[17] = beagle, dog, po, 10 mg/kg, serum

| SMILES | MIC [1] [µg/mL] | MIC [2] [µg/mL] | MIC [3] [µg/mL] | MIC [4] [µg/mL] | MIC [5] [µg/mL] | MIC [6] [µg/mL] | MIC [7] [µg/mL] | MIC [8] [µg/mL] | MIC [9] [µg/mL] | MIC [10] [µg/mL] | MIC [11] [µg/mL] | MIC [12] [µg/mL] | MIC [13] [µg/mL] | MIC [14] [µg/mL] | AUC(0-t) [15, 17] [ng·h/mL] | Cmax [15, 17] [ng/mL] | Tmax [15, 17] [h] | half-life [15, 17] [h] | Urinary excretion rate [15] [%] | Ear abnormality (point) ([16]; 0 hour after exposure) | other results |
| --- | --- | --- | --- | --- | --- | --- | --- | --- | --- | --- | --- | --- | --- | --- | --- | --- | --- | --- | --- | --- | --- |
| C[C@H]1COc2c(N3CCN(C)CC3)c(F)cc3c(=O)c(C(=O)O)cn1c23 [LVFX, S(−)-9-fluoro-2,3-dihydro-3-methyl-10-(4-methyl-1-piperazinyl)-7-oxo-7H-pyrido[1,2,3-de][1,4]benzoxazine-6-carboxylic acid] | 0.1 (≈ 0.277 µM) | 0.05 (≈ 0.138 µM) | 1.56 (≈ 4.32 µM) | 0.1 (≈ 0.277 µM) | 0.78 (≈ 2.16 µM) | 0.39 (≈ 1.08 µM) | 1.56 (≈ 4.32 µM) | 0.78 (≈ 2.16 µM) | 0.05 (≈ 0.138 µM) | 0.2 (≈ 0.553 µM) | 0.78 (≈ 2.16 µM) | 0.78 (≈ 2.16 µM) | 2 (≈ 5.53 µM) | 32 (≈ 88.6 µM) |  |  |  |  |  |  |  |
| CCNC1CN(c2c(F)cc3c(=O)c(C(=O)O)cn(-c4nc(N)c(F)cc4F)c3c2Br)C1.O=C(O)/C=C\C(=O)O [Compound 2, 1-(6-amino-3,5-difluoropyridin-2-yl)-8-bromo-7-(3-ethylaminoazetidin-1-yl)-6-fluoro-4-oxo-1,4-dihydroquino line-3-carboxylic acid maleate] |  |  |  |  |  |  |  |  |  |  |  |  |  |  | 17600 | 3730 | 1 | 4.8 | 17.4 |  |  |
| O=C(O)c1cn(C2CC2)c2cc(N3CCNCC3)c(F)cc2c1=O [CPFX, 1-cyclopropyl-6-fluoro-7-(1-piperadinyl)-1,4-dihydro-4-oxoquinoline-3-carboxylic acid] | 0.05 (≈ 0.151 µM) | 0.025 (≈ 0.0754 µM) | 1.56 (≈ 4.71 µM) | 0.05 (≈ 0.151 µM) | 3.13 (≈ 9.45 µM) | 0.78 (≈ 2.35 µM) | 0.78 (≈ 2.35 µM) | 0.39 (≈ 1.18 µM) | 0.05 (≈ 0.151 µM) | 0.2 (≈ 0.604 µM) | 1.56 (≈ 4.71 µM) | 0.2 (≈ 0.604 µM) |  |  |  |  |  |  |  |  |  |
| CCNC1CN(c2c(F)cc3c(=O)c(C(=O)O)cn(-c4nc(N)c(F)cc4F)c3c2Br)C1 [Compound 1, 1-(6-amino-3,5-difluoropyridin-2-yl)-8-bromo-7-(3-ethylaminoazetidin-1-yl)-6-fluoro-4-oxo-1,4-dihydroquinoline-3-carboxylic acid] | 0.025 (≈ 0.0488 µM) | 0.025 (≈ 0.0488 µM) | 0.39 (≈ 0.761 µM) | 0.05 (≈ 0.0976 µM) | 0.39 (≈ 0.761 µM) | 0.013 (≈ 0.0254 µM) | 1.56 (≈ 3.05 µM) | 0.78 (≈ 1.52 µM) | 0.1 (≈ 0.195 µM) | 0.013 (≈ 0.0254 µM) | 0.025 (≈ 0.0488 µM) | 1.56 (≈ 3.05 µM) | 0.03 (≈ 0.0586 µM) | 0.12 (≈ 0.234 µM) | 22800 | 4820 | 1 | 3.8 | 19.8 | 0 | Ear abnormality (frequency) ([16]; 0 hour after exposure): 0/3; Ear abnormality (point) ([16]; 24 hours after exposure): 0 point; Ear abnormality (frequency) ([16]; 24 hours after exposure): 0/3; Ear abnormality (point) ([16]; 48 hours after exposure): 0 point; Ear abnormality (frequency) ([16]; 48 hours after exposure): 0/3; bioavailability ([15]; male, beagle, dog, serum, po, 10 mg/kg, administered orally, calculated from an AUC up to 24th hour after administration): 78% |
| CNC1CN(c2c(F)cc3c(=O)c(C(=O)O)cn(-c4nc(N)c(F)cc4F)c3c2Br)C1 [Comparative Compound 1, 1-(6-amino-3,5-difluoropyridin-2-yl)-8-bromo-7-(3-methylaminoazetidin-1-yl)-6-fluoro-4-oxo-1,4-dihydroquinoline-3-carboxylic acid] | 0.05 (≈ 0.1 µM) | 0.013 (≈ 0.0261 µM) | 0.39 (≈ 0.783 µM) | 0.025 (≈ 0.0502 µM) | 0.39 (≈ 0.783 µM) | 0.025 (≈ 0.0502 µM) | 0.78 (≈ 1.57 µM) | 0.39 (≈ 0.783 µM) | 0.1 (≈ 0.201 µM) | 0.013 (≈ 0.0261 µM) | 0.05 (≈ 0.1 µM) | 1.56 (≈ 3.13 µM) | 0.06 (≈ 0.12 µM) | 0.5 (≈ 1 µM) | 8540 | 2350 | 0.5 | 2 | 14.8 | 0 | Ear abnormality (frequency) ([16]; 0 hour after exposure): 0/3; Ear abnormality (point) ([16]; 24 hours after exposure): 0 point; Ear abnormality (frequency) ([16]; 24 hours after exposure): 0/3; Ear abnormality (point) ([16]; 48 hours after exposure): 0 point; Ear abnormality (frequency) ([16]; 48 hours after exposure): 0/3 |
| CCNC1CN(c2c(F)cc3c(=O)c(C(=O)O)cn(-c4nc(N)c(F)cc4F)c3c2Cl)C1 [Comparative Compound 2, 1-(6-amino-3,5-difluoro-pyridin-2-yl)-8-chloro-7-(3-ethylaminoazetidin-1-yl)-6-fluoro-4-oxo-1,4-dihydroquinoline-3-carboxylic acid] | 0.025 (≈ 0.0534 µM) | 0.025 (≈ 0.0534 µM) | 0.78 (≈ 1.67 µM) | 0.05 (≈ 0.107 µM) | 0.78 (≈ 1.67 µM) | 0.025 (≈ 0.0534 µM) | 1.56 (≈ 3.33 µM) | 0.39 (≈ 0.834 µM) | 0.2 (≈ 0.428 µM) | 0.013 (≈ 0.0278 µM) | 0.05 (≈ 0.107 µM) | 1.56 (≈ 3.33 µM) |  |  |  |  |  |  |  | 0.7 | Ear abnormality (frequency) ([16]; 0 hour after exposure): 2/3; Ear abnormality (point) ([16]; 24 hours after exposure): 0 point; Ear abnormality (frequency) ([16]; 24 hours after exposure): 0/3; Ear abnormality (point) ([16]; 48 hours after exposure): 0 point; Ear abnormality (frequency) ([16]; 48 hours after exposure): 0/3 |
